In patent US9090874B2, “Olfactory epithelial-derived stem cells and methods of use therefor” (University of Louisville Research Foundation, Inc., priority 2008, dated 2015):

Test system: neurosphere subcultures
Test: Exposure of neurosphere subcultures to dibutyryl cAMP
Type: cell-based
Conditions: media containing 2.5 mM dibutyryl cAMP

SMILES: CCCC(=O)Nc1ncnc2c1ncn2[C@@H]1O[C@@H]2COP(=O)(O)O[C@H]2[C@H]1OC(=O)CCC [dibutyryl cAMP]
- levels of α-internexin: increases
- mitotic activity: drastically decreases
